Results: US5866575A, “Method of inhibiting HIV integrase” (Lundblad; Leif J. I., priority 1994, dated 1999)

Legend:
rats = experiment: Acute toxicity; assay type: in vivo
[1] = General toxicity after repeated administration, rabbits; settings: rabbit, in vivo, topical or ocular, dermal, for 28 days, repeated administration (except for local toxicity), read-out: NOEL (no observable effect level) dermal
Excerpt: (§1) General toxicity after repeated administration NOEL (no observable effect level)

[2] = General toxicity after repeated administration, rats; settings: rat, in vivo, iv, for 28 days, read-out: NOEL (no observable effect level) i.v.
Excerpt: as §1

In the case of Cc1cc2nc3c4ccccc4n(CCN(C)C)c3nc2cc1C [compound II, 2,3-dimethyl-6-(N,N-dimethylaminoethyl)-6H-indoloquinoxaline], the LD i.v. (rats; i.v.) is reported as > 100 mg/kg, the LD p.o. (rats; p.o.) is reported as > 800 mg/kg and the NOAEL at 672 h [1] is reported as 200 mg/kg. It also gave an NOAEL at 672 h [2] of 12.5 mg/kg.
